Reference: PubChem BioAssay AID330 (DTP/NCI, 2004)
“And” between values parts separate entries of the source, which are not always exact repeats. Equal values may be shown once. Toxic doses and inconclusive results are not listed. The calls were made as follows: active = survival T/C of 150% or more; inactive = T/C below 125% in these data.

System: P388 leukemia ip, CD2F1 mice, survival T/C
Assay: NCI In Vivo Anticancer Drug Screen. Data for tumor model P388 Leukemia (intraperitoneal) in CD2F1 (CDF1) mice
Conditions: endpoint: median survival time, higher = longer survival
Outline: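 Mice carrying the transplanted tumor received test compound or vehicle. Survival was recorded in each group, and the value is the treated-group measurement divided by that of the vehicle-treated control group.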

[1] = dose: 50.0 mg/kg/injection, schedule: Q01DX005 (ip), vehicle: saline
[2] = dose: 100.0 mg/kg/injection, schedule: Q01DX005 (ip), vehicle: saline
[3] = dose: 200.0 mg/kg/injection, schedule: Q01DX005 (ip), vehicle: saline
[4] = dose: 50.0 mg/kg/injection, schedule: Q01DX005 (ip), vehicle: saline with Tween-80
[5] = dose: 100.0 mg/kg/injection, schedule: Q01DX005 (ip), vehicle: saline with Tween-80
[6] = dose: 200.0 mg/kg/injection, schedule: Q01DX005 (ip), vehicle: saline with Tween-80
[7] = dose: 60.0 mg/kg/injection, schedule: Q01DX005 (ip), vehicle: saline with Tween-80
[8] = dose: 120.0 mg/kg/injection, schedule: Q01DX005 (ip), vehicle: saline with Tween-80
[9] = dose: 240.0 mg/kg/injection, schedule: Q01DX005 (ip), vehicle: saline with Tween-80

Measured: T/C

CC1=CC=CN2CCC(=O)N=C12
inactive: [1] 113 % of control | [2] 101 % of control | [3] 101 % of control

N#Cc1ccccc1N=Nc1ccccc1
inactive: dose: 50.0 mg/kg/injection, schedule: Q01DX009 (ip), vehicle: saline + alcohol 94 % of control | dose: 100.0 mg/kg/injection, schedule: Q01DX009 (ip), vehicle: saline + alcohol 95 % of control | dose: 200.0 mg/kg/injection, schedule: Q01DX009 (ip), vehicle: saline + alcohol 97 % of control

On1cc/c(=N\N=C\c2ccc(N(CCCl)CCCl)cc2)c2ccc(Cl)cc21
inactive: dose: 50.0 mg/kg/injection, schedule: Q01DX009 (ip), vehicle: saline with Tween-80 101 % of control | dose: 100.0 mg/kg/injection, schedule: Q01DX009 (ip), vehicle: saline with Tween-80 101 % of control | dose: 200.0 mg/kg/injection, schedule: Q01DX009 (ip), vehicle: saline with Tween-80 94 % of control

Cc1ccc(-n2nnc(-c3ccc(Cl)c(Cl)c3)n2)cc1
inactive: [4] 103 % of control | [5] 103 % of control | [6] 100 % of control

Nc1ncnc(Nc2ccc(C(F)(F)F)cc2)n1
inactive: dose: 12.5 mg/kg/injection, schedule: Q01DX009 (ip), vehicle: Klucel (hydroxypropylcellulose) (HPC) 118 % of control | dose: 25.0 mg/kg/injection, schedule: Q01DX009 (ip), vehicle: Klucel (hydroxypropylcellulose) (HPC) 107 % of control | dose: 50.0 mg/kg/injection, schedule: Q01DX009 (ip), vehicle: Klucel (hydroxypropylcellulose) (HPC) 93 % of control | dose: 100.0 mg/kg/injection, schedule: Q01DX009 (ip), vehicle: Klucel (hydroxypropylcellulose) (HPC) 87 % of control

CC1=C(C)C(=O)OC1
inactive: dose: 60.0 mg/kg/injection, schedule: Q01DX005 (ip), vehicle: saline 108 % of control | dose: 120.0 mg/kg/injection, schedule: Q01DX005 (ip), vehicle: saline 107 % of control | dose: 240.0 mg/kg/injection, schedule: Q01DX005 (ip), vehicle: saline 101 % of control

CC(C)=CC(=O)CC(O)(C(F)(F)F)C(F)(F)Cl (stereo unspecified)
inactive: dose: 25.0 mg/kg/injection, schedule: Q01DX009 (ip), vehicle: saline with Tween-80 109 % of control

c1ccc(-c2cn3ccsc3n2)cc1
inactive: dose: 25.0 mg/kg/injection, schedule: Q01DX009 (ip), vehicle: other 109 % of control | dose: 50.0 mg/kg/injection, schedule: Q01DX009 (ip), vehicle: other 115 % of control | dose: 100.0 mg/kg/injection, schedule: Q01DX009 (ip), vehicle: other 115 % of control | dose: 200.0 mg/kg/injection, schedule: Q01DX009 (ip), vehicle: other 115 % of control

Cc1ccc(O)c(C(NCCO)c2ccccc2)c1 (stereo unspecified)
inactive: dose: 100.0 mg/kg/injection, schedule: Q04DX002 (ip), vehicle: saline 102 % of control

COCc1onc(-c2ccc(OC)cc2)c1-c1ccc(OC)cc1
inactive: [7] 105 % of control | [8] 100 % of control | [9] 100 % of control

Cc1ccccc1-n1c(COc2c(C)cccc2C)n[nH]c1=S
inactive: dose: 50.0 mg/kg/injection, schedule: Q01DX005 (ip), vehicle: Klucel (hydroxypropylcellulose) (HPC) 93 % of control | dose: 100.0 mg/kg/injection, schedule: Q01DX005 (ip), vehicle: Klucel (hydroxypropylcellulose) (HPC) 97 % of control | dose: 200.0 mg/kg/injection, schedule: Q01DX005 (ip), vehicle: Klucel (hydroxypropylcellulose) (HPC) 99 % of control

Nc1nccc(CC(O)(c2ccccc2)c2ccccc2)n1
inactive: dose: 15.0 mg/kg/injection, schedule: Q01DX005 (ip), vehicle: saline with Tween-80 102 % of control | dose: 30.0 mg/kg/injection, schedule: Q01DX005 (ip), vehicle: saline with Tween-80 102 % of control | [7] 99 % of control and 100 % of control | [8] 95 % of control | [9] 87 % of control

CC(C)C(O)(C(=O)OCC1=CCN2CCC(O)C12)C(C)O (stereo unspecified)
inactive: [1] 103 % of control | [2] 109 % of control | [3] 117 % of control

COC(=O)c1cccnc1C#N
inactive: dose: 30.0 mg/kg/injection, schedule: Q01DX005 (ip), vehicle: Klucel (hydroxypropylcellulose) (HPC) 100 % of control | dose: 60.0 mg/kg/injection, schedule: Q01DX005 (ip), vehicle: Klucel (hydroxypropylcellulose) (HPC) 110 % of control | dose: 120.0 mg/kg/injection, schedule: Q01DX005 (ip), vehicle: Klucel (hydroxypropylcellulose) (HPC) 102 % of control | dose: 240.0 mg/kg/injection, schedule: Q01DX005 (ip), vehicle: Klucel (hydroxypropylcellulose) (HPC) 112 % of control

CCN1C(=O)CCN(S(=O)(=O)c2ccc(-n3nc(C)cc3C)cc2)C1=S
inactive: [4] 99 % of control | [5] 95 % of control | [6] 103 % of control
